Measurements as given in patent publication US12077503B2, “Substituted cyclic amides and their use as herbicides” (FMC CORPORATION, priority 2015, dated 2024).

Key:
Format in all cases: in vivo
rice (Oryra sativa) = experiment: Test B flooded paddy test; settings: Oryza sativa, 360 h, Flood, 250 g ai/ha; visually evaluated after 13 to 15 d; read-out: Plant response rating, Rice (0 to 100 scale where 0 is no effect and 100 is complete control)
Method in brief: (§1)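 Rating scale 0–100 (visual, vs untreated controls) after a 13–15 d greenhouse period; application to the flood layer, 3 cm above soil and maintained; plants at 2-leaf stage when treated.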

[1] = test system: sedge, umbrella (small-flower umbrella sedge, Cyperus difformis); experiment: Test B flooded paddy test; settings: Cyperus difformis, 360 h, Flood, 250 g ai/ha; visually evaluated after 13 to 15 d; read-out: Plant response rating, Sedge, Umbrella (0 to 100 scale where 0 is no effect and 100 is complete control)
Method in brief: as §1

[2] = test system: ducksalad (Heteranthera limosa); experiment: Test B flooded paddy test; settings: Heteranthera limosa, 360 h, Flood, 250 g ai/ha; visually evaluated after 13 to 15 d; read-out: Plant response rating, Ducksalad (0 to 100 scale where 0 is no effect and 100 is complete control)
Method in brief: as §1

[3] = test system: barnyardgrass (Echinochloa crus-galli); experiment: Test B flooded paddy test; settings: Echinochloa crus-galli, 360 h, Flood, 250 g ai/ha; visually evaluated after 13 to 15 d; read-out: Plant response rating, Barnyardgrass (0 to 100 scale where 0 is no effect and 100 is complete control)
Method in brief: as §1

[4] = test system: pigweed (Amaranthus retroflexus); experiment: Test A preemergence; settings: Amaranthus retroflexus, pre-emergence, 240 h, Preemergence; for pest or weed control at 31 g/ha: 31 g ai/ha, 0 to 100 scale where 0 is no effect and 100 is complete control, read-out: Pigweed plant response rating; for pest or weed control at 125 g/ha: 125 g ai/ha, 0 to 100 scale (0 no effect, 100 complete control), read-out: Plant response rating, Pigweed
Kochia (Kochia scoparia) [5] = experiment: Test A preemergence; settings: Bassia scoparia, pre-emergence, 240 h, Preemergence; for pest or weed control at 31 g/ha: 31 g ai/ha, 0 to 100 scale where 0 is no effect and 100 is complete control, read-out: Kochia plant response rating; for pest or weed control at 125 g/ha: 125 g ai/ha, 0 to 100 scale (0 no effect, 100 complete control), read-out: Plant response rating, Kochia
Method in brief: (§2)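 Treatment is preemergence as a directed soil spray after planting, or postemergence at the one- to two-leaf stage, with test chemical in a non-phytotoxic solvent mixture plus surfactant. Plants stay in the greenhouse about 10 d before visual injury scoring on a 0 to 100 scale versus untreated controls.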

[6] = test system: ragweed (common ragweed, Ambrosia elatior); experiment: Test A preemergence; settings: Ambrosia artemisiifolia, pre-emergence, 240 h, Preemergence; for pest or weed control at 31 g/ha: 31 g ai/ha, 0 to 100 scale where 0 is no effect and 100 is complete control, read-out: Ragweed plant response rating; for pest or weed control at 125 g/ha: 125 g ai/ha, 0 to 100 scale (0 no effect, 100 complete control), read-out: Plant response rating, Ragweed
Method in brief: as §2

[7] = test system: barnyardgrass (Echinochloa crus-galli); experiment: Test A preemergence; settings: Echinochloa crus-galli, pre-emergence, 240 h, Preemergence; for pest or weed control at 31 g/ha: 31 g ai/ha, 0 to 100 scale where 0 is no effect and 100 is complete control, read-out: Barnyardgrass plant response rating; for pest or weed control at 125 g/ha: 125 g ai/ha, 0 to 100 scale (0 no effect, 100 complete control), read-out: Plant response rating, Barnyardgrass
Method in brief: as §2

[8] = test system: ryegrass, Italian (Italian ryegrass, Lolium multiflorum); experiment: Test A preemergence; settings: Lolium multiflorum, pre-emergence, 240 h, Preemergence; for pest or weed control at 31 g/ha: 31 g ai/ha, 0 to 100 scale where 0 is no effect and 100 is complete control, read-out: Ryegrass, Italian plant response rating; for pest or weed control at 125 g/ha: 125 g ai/ha, 0 to 100 scale (0 no effect, 100 complete control), read-out: Plant response rating, Ryegrass, Italian
Method in brief: as §2

[9] = test system: giant foxtail (Setaria faberii); experiment: Test A preemergence; settings: Setaria faberi, pre-emergence, 240 h, Preemergence; for pest or weed control at 31 g/ha: 31 g ai/ha, 0 to 100 scale where 0 is no effect and 100 is complete control, read-out: Foxtail, Giant plant response rating; for pest or weed control at 125 g/ha: 125 g ai/ha, 0 to 100 scale (0 no effect, 100 complete control), read-out: Plant response rating, Foxtail, Giant
Method in brief: as §2

[10] = test system: pigweed (Amaranthus retroflexus); experiment: Test A postemergence; settings: Amaranthus retroflexus, post-emergence, 240 h, Postemergence, read-out: Pigweed plant response rating (0 to 100 scale); for pest or weed control at 125 g/ha: 125 g ai/ha, visual rating about 10 d after treatment; for pest or weed control at 31 g/ha: 31 g ai/ha, 0 is no effect, 100 is complete control
Method in brief: as §2

[11] = test system: blackgrass (Alopecurus myosuroides); experiment: Test A postemergence; settings: Alopecurus myosuroides, post-emergence, 240 h, Postemergence, read-out: Blackgrass plant response rating (0 to 100 scale); for pest or weed control at 125 g/ha: 125 g ai/ha, visual rating about 10 d after treatment; for pest or weed control at 31 g/ha: 31 g ai/ha, 0 is no effect, 100 is complete control
Method in brief: as §2

[12] = test system: wheat (Triticum aestivum); experiment: Test A postemergence; settings: Triticum aestivum, post-emergence, 240 h, Postemergence, read-out: Wheat plant response rating (0 to 100 scale); for plant injury at 125 g/ha: 125 g ai/ha, visual rating about 10 d after treatment; for plant injury at 31 g/ha: 31 g ai/ha, 0 is no effect, 100 is complete control
Method in brief: as §2

Kochia (Kochia scoparia) [13] = experiment: Test A postemergence; settings: Bassia scoparia, post-emergence, 240 h, Postemergence, read-out: Kochia plant response rating (0 to 100 scale); for pest or weed control at 125 g/ha: 125 g ai/ha, visual rating about 10 d after treatment; for pest or weed control at 31 g/ha: 31 g ai/ha, 0 is no effect, 100 is complete control
Method in brief: as §2

corn (Zea mays) = experiment: Test A postemergence; settings: Zea mays, post-emergence, 240 h, Postemergence, read-out: Corn plant response rating (0 to 100 scale); for plant injury at 125 g/ha: 125 g ai/ha, visual rating about 10 d after treatment; for plant injury at 31 g/ha: 31 g ai/ha, 0 is no effect, 100 is complete control
Method in brief: as §2

[14] = test system: ragweed (common ragweed, Ambrosia elatior); experiment: Test A postemergence; settings: Ambrosia artemisiifolia, post-emergence, 240 h, Postemergence, read-out: Ragweed plant response rating (0 to 100 scale); for pest or weed control at 125 g/ha: 125 g ai/ha, visual rating about 10 d after treatment; for pest or weed control at 31 g/ha: 31 g ai/ha, 0 is no effect, 100 is complete control
Method in brief: as §2

[15] = test system: barnyardgrass (Echinochloa crus-galli); experiment: Test A postemergence; settings: Echinochloa crus-galli, post-emergence, 240 h, Postemergence; for pest or weed control at 125 g/ha: 125 g ai/ha, visual rating about 10 d after treatment, read-out: Barnyardgrass plant response rating (0 to 100 scale, 0 no effect, 100 complete control); for pest or weed control at 31 g/ha: 31 g ai/ha, 0 is no effect, 100 is complete control, read-out: Barnyardgrass plant response rating (0 to 100 scale)
Method in brief: as §2

[16] = test system: ryegrass, Italian (Italian ryegrass, Lolium multiflorum); experiment: Test A postemergence; settings: Lolium multiflorum, post-emergence, 240 h, Postemergence, read-out: Ryegrass, Italian plant response rating (0 to 100 scale); for pest or weed control at 125 g/ha: 125 g ai/ha, visual rating about 10 d after treatment; for pest or weed control at 31 g/ha: 31 g ai/ha, 0 is no effect, 100 is complete control
Method in brief: as §2

[17] = test system: giant foxtail (Setaria faberii); experiment: Test A postemergence; settings: Setaria faberi, post-emergence, 240 h, Postemergence, read-out: Foxtail, Giant plant response rating (0 to 100 scale); for pest or weed control at 125 g/ha: 125 g ai/ha, visual rating about 10 d after treatment; for pest or weed control at 31 g/ha: 31 g ai/ha, 0 is no effect, 100 is complete control
Method in brief: as §2

| Compound | pest or weed control at 250 g/ha (rice (Oryra sativa)) [%] | pest or weed control at 250 g/ha [1] [%] | pest or weed control at 250 g/ha [2] [%] | pest or weed control at 250 g/ha [3] [%] | pest or weed control at 31 g/ha [4] [%] | pest or weed control at 125 g/ha [4] [%] | pest or weed control at 31 g/ha (Kochia (Kochia scoparia) [5]) [%] | pest or weed control at 125 g/ha (Kochia (Kochia scoparia) [5]) [%] | pest or weed control at 31 g/ha [6] [%] | pest or weed control at 125 g/ha [6] [%] | pest or weed control at 31 g/ha [7] [%] | pest or weed control at 125 g/ha [7] [%] | pest or weed control at 31 g/ha [8] [%] | pest or weed control at 125 g/ha [8] [%] | pest or weed control at 31 g/ha [9] [%] | pest or weed control at 125 g/ha [9] [%] | pest or weed control at 125 g/ha [10] [%] | pest or weed control at 31 g/ha [10] [%] | pest or weed control at 125 g/ha [11] [%] | pest or weed control at 31 g/ha [11] [%] | other results |
| --- | --- | --- | --- | --- | --- | --- | --- | --- | --- | --- | --- | --- | --- | --- | --- | --- | --- | --- | --- | --- | --- |
| CN1C[C@H](c2ccc3c(c2)OC(F)(F)O3)[C@@H](C(=O)Nc2ccccc2C(F)(F)F)C1=O [Compound 1352] | 0 | 0 | 70 | 60 | 0 | 80 | 20 | 60 | 0 | 30 | 80 | 90 | 0 | 40 | 100 | 100 | 0 | 0 | 30 | 0 | plant injury at 125 g/ha [12]: 20%; plant injury at 31 g/ha [12]: 0%; pest or weed control at 125 g/ha (Kochia (Kochia scoparia) [13]): 0%; pest or weed control at 31 g/ha (Kochia (Kochia scoparia) [13]): 0%; plant injury at 125 g/ha (corn (Zea mays)): 0%; plant injury at 31 g/ha (corn (Zea mays)): 0%; pest or weed control at 125 g/ha [14]: 0%; pest or weed control at 31 g/ha [14]: 0%; pest or weed control at 125 g/ha [15]: 60%; pest or weed control at 31 g/ha [15]: 60%; pest or weed control at 125 g/ha [16]: 0%; pest or weed control at 31 g/ha [16]: 0%; pest or weed control at 125 g/ha [17]: 80%; pest or weed control at 31 g/ha [17]: 60% |
| COc1ccc([C@H]2CN(C)C(=O)[C@@H]2C(=O)Nc2ccccc2F)cc1 [Compound 1342] | 0 | 0 | 85 | 50 | 0 | 20 | 0 | 0 | 0 | 0 | 60 | 90 | 0 | 0 | 90 | 100 | 0 | 0 | 0 | 0 | plant injury at 125 g/ha [12]: 0%; plant injury at 31 g/ha [12]: 0%; pest or weed control at 125 g/ha (Kochia (Kochia scoparia) [13]): 20%; pest or weed control at 31 g/ha (Kochia (Kochia scoparia) [13]): 0%; plant injury at 125 g/ha (corn (Zea mays)): 0%; plant injury at 31 g/ha (corn (Zea mays)): 0%; pest or weed control at 125 g/ha [14]: 0%; pest or weed control at 31 g/ha [14]: 0%; pest or weed control at 125 g/ha [15]: 90%; pest or weed control at 31 g/ha [15]: 20%; pest or weed control at 125 g/ha [16]: 0%; pest or weed control at 31 g/ha [16]: 0%; pest or weed control at 125 g/ha [17]: 70%; pest or weed control at 31 g/ha [17]: 20% |
